The results in this text go back to patent US12252524B2, “GIP/GLP1 co-agonist compounds” (Eli Lilly and Company, priority 2018, dated 2025).

Experiment [1] addresses T1, human Gcg receptor (Homo sapiens, UniProt P47871).
T1 construct: expressed in transfected cells; crude membranes
The experiment is described as follows: [125I]-Glucagon binding (SPA), human Gcg receptor. Conditions: read-out: hGLcgR Ki, nM (SEM, n). A digest of the protocol:
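Scintillation counts are taken after membranes and WGA beads incubate and settle for 12 hours at room temperature. Buffer is 25 mM HEPES, pH 7.4, with CaCl2, MgCl2, bacitracin and Tween-20. Ki values, from four-parameter IC50 fits, are geometric means over independent days.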

Experiment [2] deals with T2, human GIP receptor (Homo sapiens, UniProt P48546).
T2 construct: expressed in transfected cells; crude membranes
T2 sequence (P48546 22-466): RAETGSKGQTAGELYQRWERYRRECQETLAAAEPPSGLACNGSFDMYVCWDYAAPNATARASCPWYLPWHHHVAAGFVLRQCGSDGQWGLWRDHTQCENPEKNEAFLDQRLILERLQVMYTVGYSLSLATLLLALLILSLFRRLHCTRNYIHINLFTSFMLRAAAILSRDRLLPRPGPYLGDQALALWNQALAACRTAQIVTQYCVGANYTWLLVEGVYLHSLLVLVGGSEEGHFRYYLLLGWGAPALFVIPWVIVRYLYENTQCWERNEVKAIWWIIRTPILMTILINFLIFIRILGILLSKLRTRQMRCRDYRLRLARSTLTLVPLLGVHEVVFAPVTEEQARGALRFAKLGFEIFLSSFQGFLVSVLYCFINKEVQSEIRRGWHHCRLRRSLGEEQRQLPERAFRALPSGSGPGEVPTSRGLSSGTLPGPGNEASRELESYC
The experiment in a line: [125I]-GIP binding (SPA), human GIP receptor. Conditions: read-out: hGIPR Ki, nM (SEM, n).

Experiment [3] deals with human GLP-1 receptor (GLP-1R) (Homo sapiens, UniProt P43220). The experiment in a line: cAMP pharmacological functional assay in presence of casein, hGLP-1R. Conditions: HEK293 cells expressing hGLP-1R, 0.1% Casein, geometric mean; read-out: hGLP1R cAMP Rel EC50 nM (SEM, n). Type of experiment: cell-based.
Chain of human GLP-1 receptor (GLP-1R) (P43220 24-463): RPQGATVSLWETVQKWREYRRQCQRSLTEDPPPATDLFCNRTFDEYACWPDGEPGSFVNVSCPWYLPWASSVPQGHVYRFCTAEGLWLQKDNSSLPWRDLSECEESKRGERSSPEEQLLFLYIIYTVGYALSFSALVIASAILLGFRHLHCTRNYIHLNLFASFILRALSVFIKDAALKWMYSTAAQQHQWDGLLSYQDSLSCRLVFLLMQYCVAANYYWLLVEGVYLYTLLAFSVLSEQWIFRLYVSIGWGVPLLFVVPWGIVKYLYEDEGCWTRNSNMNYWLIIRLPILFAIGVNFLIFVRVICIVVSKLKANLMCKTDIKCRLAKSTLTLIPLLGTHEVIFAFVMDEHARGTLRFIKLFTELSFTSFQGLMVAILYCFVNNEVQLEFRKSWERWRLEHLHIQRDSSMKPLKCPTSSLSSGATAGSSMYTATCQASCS
Experiment [4] deals with T3, gastric inhibitory peptide receptor (GIPR) (Homo sapiens, UniProt P48546).
T3 sequence (P48546 22-466): T2 sequence (P48546 22-466)
The experiment in a line: cAMP pharmacological functional assay in presence of casein, hGIPR. The experiment is classed as cell-based. Conditions: HEK293 cells expressing hGIPR, 0.1% Casein, geometric mean; read-out: hGIPR cAMP Rel EC50 nM (SEM, n).

The target of experiment [5] is human GLP-1R (Homo sapiens, UniProt P43220). The experiment in a line: [125I]-GLP-1 binding (SPA), human GLP-1 receptor. Details: expressed in transfected cells; crude membranes. Conditions: read-out: hGLP1R Ki, (nM) (SEM, n). In short, it runs like this: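 Membranes: hypotonic lysis (50 mM Tris HCl, pH 7.5, protease inhibitors), Potter-Elvehjem homogenization, high-speed pellet (35000×g 1 h or 25000×g 30 min, 4° C.). Buffer: 25 mM HEPES pH 7.4, 2.5 mM CaCl2, 1 mM MgCl2. Four-parameter IC50 fit; Ki as geometric mean ± SEM.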
Chain of human GLP-1R (P43220 24-463): as above

Numbered stars: 1 amine (or outer) side, 2 acyl side, 3 side chain; on linkers, the order of the positions; unused ones are H or OH. Square brackets hold non-standard residues; d marks the D form. Side chains are listed from the residue outwards. Peptide text beside a SMILES is read from it. * marks the point of attachment. C20 diacid = O=C(O)CCCCCCCCCCCCCCCCCCC(=O)*; C18 diacid = O=C(O)CCCCCCCCCCCCCCCCC(=O)*; αMePhe(2-F) = C[C@](N)(Cc1ccccc1F)C(=O)O; C16 diacid = O=C(O)CCCCCCCCCCCCCCC(=O)*; γGlu = O=C(O)[C@H](CCC(=O)[*:2])N[*:1]; 4Pal = N[C@@H](Cc1ccncc1)C(=O)O; αMeL = CC(C)C[C@](C)(N)C(=O)O; Dab = NCC[C@H](N)C(=O)O; Dap = NC[C@H](N)C(=O)O; AEEA = NCCOCCOCC(=O)O; Aib = CC(C)(N)C(=O)O Where only a bound is given, the exact number is not on record here.

T1 sequence (P47871 26-477): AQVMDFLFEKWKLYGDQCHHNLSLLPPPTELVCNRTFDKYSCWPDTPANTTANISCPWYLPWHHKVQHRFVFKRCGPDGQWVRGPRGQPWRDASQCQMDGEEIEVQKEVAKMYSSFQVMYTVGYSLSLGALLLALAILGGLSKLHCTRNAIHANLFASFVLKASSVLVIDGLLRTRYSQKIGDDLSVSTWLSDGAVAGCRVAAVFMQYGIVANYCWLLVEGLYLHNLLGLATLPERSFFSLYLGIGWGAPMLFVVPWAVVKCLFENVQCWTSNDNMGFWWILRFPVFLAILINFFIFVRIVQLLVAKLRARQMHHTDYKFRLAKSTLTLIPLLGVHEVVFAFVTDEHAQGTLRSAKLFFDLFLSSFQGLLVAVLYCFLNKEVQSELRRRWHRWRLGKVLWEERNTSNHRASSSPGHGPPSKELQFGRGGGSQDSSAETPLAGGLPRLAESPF

For `CC[C@H](C)[C@H](NC(=O)[C@H](CC(C)C)NC(=O)[C@H](Cc1ccc(O)cc1)NC(=O)[C@@H](CCC(=O)O)NC(=O)[C@@H](NC(=O)[C@H](Cc1ccccc1)NC(=O)[C@H](CCC(=O)O)NC(=O)C(C)(C)NC(=O)[C@H](CCC(N)=O)NC(=O)[C@H](C)NC(=O)[C@H](CCCCNC(=O)COCCOCCNC(=O)COCCOCCNC(=O)CCCCCCCCCCCCCCCCCCC(=O)O)NC(=O)[C@H](CCC(=O)O)NC(=O)[C@H](CC(=O)O)NC(=O)[C@H](CC(C)C)NC(=O)[C@](C)(CC(C)C)NC(=O)[C@@H](NC(=O)[C@H](CO)NC(=O)[C@H](Cc1ccncc1)NC(=O)[C@H](CC(=O)O)NC(=O)[C@H](CO)NC(=O)[C@@H](NC(=O)[C@](C)(Cc1ccccc1F)NC(=O)[C@@H](NC(=O)CNC(=O)[C@H](CCC(=O)O)NC(=O)C(C)(C)NC(=O)[C@@H](N)Cc1ccc(O)cc1)[C@@H](C)O)[C@@H](C)O)[C@@H](C)CC)[C@@H](C)CC)C(=O)N[C@@H](CCC(=O)O)C(=O)NCC(=O)NCC(=O)N1CCC[C@H]1C(=O)N[C@@H](CO)C(=O)N[C@@H](CO)C(=O)NCC(=O)N[C@@H](C)C(=O)N1CCC[C@H]1C(=O)N1CCC[C@H]1C(=O)N1CCC[C@H]1C(=O)N[C@@H](CO)C(N)=O` [Example 206] (H-Y[Aib]EGT[αMePhe(2-F)]TSD[4Pal]SI[αMeL]LDEK([AEEA-AEEA-C20 diacid])AQ[Aib]EFI[dE]YLIEGGPSSGAPPPS-NH2; N-terminus assumed), the Ki (usually the equilibrium dissociation constant of an inhibitor or competing ligand from its target) turned out to be 176 nM in experiment [1], 0.0814 nM in experiment [2] and 5.27 nM in experiment [5]. Also, the EC50 (usually the midpoint of the concentration-response curve) in experiment [3] worked out at 0.027 nM; in experiment [4], 0.0409 nM.

For the compound `CC[C@H](C)[C@H](NC(=O)[C@H](CC(C)C)NC(=O)[C@H](Cc1ccc(O)cc1)NC(=O)[C@@H](CCC(=O)O)NC(=O)[C@@H](NC(=O)[C@H](Cc1ccccc1)NC(=O)[C@H](CCC(=O)O)NC(=O)C(C)(C)NC(=O)[C@H](CCC(N)=O)NC(=O)[C@H](C)NC(=O)[C@H](CCCCNC(=O)COCCOCCNC(=O)COCCOCCNC(=O)CC[C@H](NC(=O)CCCCCCCCCCCCCCC(=O)O)C(=O)O)NC(=O)[C@H](CCC(=O)O)NC(=O)[C@H](CC(=O)O)NC(=O)[C@H](CC(C)C)NC(=O)[C@](C)(CC(C)C)NC(=O)[C@@H](NC(=O)[C@H](CO)NC(=O)[C@H](Cc1ccc(O)cc1)NC(=O)[C@H](CC(=O)O)NC(=O)[C@H](CO)NC(=O)[C@@H](NC(=O)[C@](C)(Cc1ccccc1F)NC(=O)[C@@H](NC(=O)CNC(=O)[C@H](CCC(=O)O)NC(=O)C(C)(C)NC(=O)[C@@H](N)Cc1ccc(O)cc1)[C@@H](C)O)[C@@H](C)O)[C@@H](C)CC)[C@@H](C)CC)C(=O)N[C@@H](CCC(=O)O)C(=O)NCC(=O)NCC(=O)N1CCC[C@H]1C(=O)N[C@@H](CO)C(=O)N[C@@H](CO)C(=O)NCC(=O)N[C@@H](C)C(=O)N1CCC[C@H]1C(=O)N1CCC[C@H]1C(=O)N1CCC[C@H]1C(=O)N[C@@H](CO)C(N)=O` [Example 208] (H-Y[Aib]EGT[αMePhe(2-F)]TSDYSI[αMeL]LDEK([AEEA-AEEA-γGlu-C16 diacid])AQ[Aib]EFI[dE]YLIEGGPSSGAPPPS-NH2), the inhibition constant Ki in experiment [1] is greater than 1060 nM; in experiment [2] it was 0.0537 nM; in experiment [5], 2.13 nM. The EC50 in experiment [3] came to 0.0753 nM; in experiment [4], 0.0371 nM.

As for `CC[C@H](C)[C@H](NC(=O)[C@H](CC(C)C)NC(=O)[C@H](Cc1ccc(O)cc1)NC(=O)[C@@H](CCC(=O)O)NC(=O)[C@@H](NC(=O)[C@H](Cc1ccccc1)NC(=O)[C@H](CCC(=O)O)NC(=O)C(C)(C)NC(=O)[C@H](CCC(N)=O)NC(=O)[C@H](C)NC(=O)[C@H](CCCCNC(=O)COCCOCCNC(=O)COCCOCCNC(=O)CC[C@H](NC(=O)CCCCCCCCCCCCCCCCC(=O)O)C(=O)O)NC(=O)[C@H](CCN)NC(=O)[C@H](CC(=O)O)NC(=O)[C@H](CC(C)C)NC(=O)[C@](C)(CC(C)C)NC(=O)[C@@H](NC(=O)[C@H](CO)NC(=O)[C@H](Cc1ccc(O)cc1)NC(=O)[C@H](CC(=O)O)NC(=O)[C@H](CO)NC(=O)[C@@H](NC(=O)[C@](C)(Cc1ccccc1F)NC(=O)[C@@H](NC(=O)CNC(=O)[C@H](CCC(=O)O)NC(=O)C(C)(C)NC(=O)[C@@H](N)Cc1ccc(O)cc1)[C@@H](C)O)[C@@H](C)O)[C@@H](C)CC)[C@@H](C)CC)C(=O)N[C@@H](CCC(=O)O)C(=O)NCC(=O)NCC(=O)N1CCC[C@H]1C(=O)N[C@@H](CO)C(=O)N[C@@H](CO)C(=O)NCC(=O)N[C@@H](C)C(=O)N1CCC[C@H]1C(=O)N1CCC[C@H]1C(=O)N1CCC[C@H]1C(=O)N[C@@H](CO)C(N)=O` [Example 209] (H-Y[Aib]EGT[αMePhe(2-F)]TSDYSI[αMeL]LD[Dab]K([AEEA-AEEA-γGlu-C18 diacid])AQ[Aib]EFI[dE]YLIEGGPSSGAPPPS-NH2), the Ki was greater than 1060 nM in experiment [1], 0.0664 nM in experiment [2] and 1.43 nM in experiment [5]. Further, the concentration giving a half-maximal response (EC50) in experiment [3] is 0.0374 nM; in experiment [4] it was 0.0308 nM.

`CC[C@H](C)[C@H](NC(=O)[C@H](CC(C)C)NC(=O)[C@H](Cc1ccc(O)cc1)NC(=O)[C@@H](CCC(=O)O)NC(=O)[C@@H](NC(=O)[C@H](Cc1ccccc1)NC(=O)[C@H](CCC(=O)O)NC(=O)C(C)(C)NC(=O)[C@H](CCC(N)=O)NC(=O)[C@H](C)NC(=O)[C@H](CCCCNC(=O)COCCOCCNC(=O)COCCOCCNC(=O)CC[C@H](NC(=O)CCCCCCCCCCCCCCCCC(=O)O)C(=O)O)NC(=O)[C@H](CN)NC(=O)[C@H](CC(=O)O)NC(=O)[C@H](CC(C)C)NC(=O)[C@](C)(CC(C)C)NC(=O)[C@@H](NC(=O)[C@H](CO)NC(=O)[C@H](Cc1ccc(O)cc1)NC(=O)[C@H](CC(=O)O)NC(=O)[C@H](CO)NC(=O)[C@@H](NC(=O)[C@](C)(Cc1ccccc1F)NC(=O)[C@@H](NC(=O)CNC(=O)[C@H](CCC(=O)O)NC(=O)C(C)(C)NC(=O)[C@@H](N)Cc1ccc(O)cc1)[C@@H](C)O)[C@@H](C)O)[C@@H](C)CC)[C@@H](C)CC)C(=O)N[C@@H](CCC(=O)O)C(=O)NCC(=O)NCC(=O)N1CCC[C@H]1C(=O)N[C@@H](CO)C(=O)N[C@@H](CO)C(=O)NCC(=O)N[C@@H](C)C(=O)N1CCC[C@H]1C(=O)N1CCC[C@H]1C(=O)N1CCC[C@H]1C(=O)N[C@@H](CO)C(N)=O` [Example 210] (H-Y[Aib]EGT[αMePhe(2-F)]TSDYSI[αMeL]LD[Dap]K([AEEA-AEEA-γGlu-C18 diacid])AQ[Aib]EFI[dE]YLIEGGPSSGAPPPS-NH2): the Ki in experiment [1] is greater than 1010 nM; in experiment [2], 0.0399 nM; in experiment [5], 1.58 nM. Further, the EC50 in experiment [3] came to 0.0432 nM; in experiment [4] it was 0.0383 nM.

On to `CC[C@H](C)[C@H](NC(=O)[C@H](CC(C)C)NC(=O)[C@H](Cc1ccc(O)cc1)NC(=O)[C@@H](CCC(=O)O)NC(=O)[C@@H](NC(=O)[C@H](Cc1ccccc1)NC(=O)[C@H](CCC(=O)O)NC(=O)C(C)(C)NC(=O)[C@H](CCC(N)=O)NC(=O)[C@H](C)NC(=O)[C@H](CCCCNC(=O)COCCOCCNC(=O)COCCOCCNC(=O)CC[C@H](NC(=O)CCCCCCCCCCCCCCCCCCC(=O)O)C(=O)O)NC(=O)[C@H](CCCCN)NC(=O)[C@H](CC(=O)O)NC(=O)[C@H](CC(C)C)NC(=O)[C@](C)(CC(C)C)NC(=O)[C@@H](NC(=O)[C@H](CO)NC(=O)[C@H](Cc1ccc(O)cc1)NC(=O)[C@H](CC(=O)O)NC(=O)[C@H](CO)NC(=O)[C@@H](NC(=O)[C@](C)(Cc1ccccc1F)NC(=O)[C@@H](NC(=O)CNC(=O)[C@H](CCC(=O)O)NC(=O)C(C)(C)NC(=O)[C@@H](N)Cc1ccc(O)cc1)[C@@H](C)O)[C@@H](C)O)[C@@H](C)CC)[C@@H](C)CC)C(=O)N[C@@H](CCC(=O)O)C(=O)NCC(=O)NCC(=O)N1CCC[C@H]1C(=O)N[C@@H](CO)C(=O)N[C@@H](CO)C(=O)NCC(=O)N[C@@H](C)C(=O)N1CCC[C@H]1C(=O)N1CCC[C@H]1C(=O)N1CCC[C@H]1C(=O)N[C@@H](CO)C(N)=O` [Example 212] (H-Y[Aib]EGT[αMePhe(2-F)]TSDYSI[αMeL]LDKK([AEEA-AEEA-γGlu-C20 diacid])AQ[Aib]EFI[dE]YLIEGGPSSGAPPPS-NH2), for which the Ki in experiment [1] was determined as 205 nM; in experiment [2], 0.0978 nM; in experiment [5], 2.76 nM. The figures for the EC50 in experiment [3] and in experiment [4] were 0.0572 nM and 0.0501 nM, respectively.
